Results on 1 substance are retold here after patent publication US8486916B2, “Medicine, food and drink or feed containing sphingomyelin” (Megmilk Snow Brand Co., Ltd., priority 2005, dated 2013).

The test concerns β-Lg. Briefly: Test on effect of blocking allergen invasion (β-Lg and anti-β-Lg IgE in blood). The format is in vivo, Infant Wistar rats. As to conditions: for Anti-β-Lg IgE: blood 2 weeks after β-Lg; for β-Lg: blood 1 hour after β-Lg. As to the method:
Infant Wistar rats (14 day old, body weight: around 20 g, 8 individuals, Charles River Laboratories, Japan) were divided into a control group and sphingomyelin administration groups (SPM administration groups), and all the groups were raised using artificial milk having composition closely analogous to that of rat milk. […] On the 21st day, 100 μl of a β-Lg solution (10 mg/ml) was orally administered thereto. Blood collected from the rats after 1 hour and after 2 weeks. On the other hand, a β-Lg solution and a complete Freund adjuvant were mixed for emulsification, and the emulsion was hypodermically injected to 3 locations (both sides of the back, and the hip) of a 3-month-old rabbit (Japanese white, male, manufactured by KITAYAMA LABES Co., Ltd.) to obtain anti-β-Lg serum. A β-Lg amount in the above-described blood after 1 hour was measured by a sandwich ELISA method using this antiserum as a primary antibody and a horseradish peroxidase (PO)-labeled secondary antibody. Moreover, anti-β-Lg IgE in the above-described blood after 2 weeks was measured by an ELISA method using β-Lg and a PO-labeled anti-rat IgE antibody (manufactured by Nordic).

Turning to sphingomyelin, the “Anti-β-Lg IgE” value is, setting by setting: (0.05 mg/kg/day oral) 498.2 ± 156.8 ng/mL; (0.1 mg/kg/day oral) 190.6 ± 77.8 ng/mL; (5.0 mg/kg/day oral) 165.4 ± 65.9 ng/mL. Further, the β-Lg (0.05 mg/kg/day oral) came to 38.6 ± 14.7 ng/mL, the β-Lg (0.1 mg/kg/day oral) is 13.4 ± 6.6 ng/mL and the β-Lg (5.0 mg/kg/day oral) turned out to be 5.6 ± 3.8 ng/mL.
